Measured values reported in the NIST ThermoML archive (doi:10.1021/je060107n).

Assay: mn = molality of the nth substance listed, in mol/kg
Settings: 101 kPa, Liquid; for mass density: Pycnometric method; for viscosity: Capillary tube (Ostwald / Ubbelohde) method; for speed of sound: Linear variable-path acoustic interferometer

CC(=O)[O-].CC(=O)[O-].[Mg+2] [magnesium acetate] + O
Settings | mass density [kg/m3] | speed of sound [m/s] | viscosity [mPa·s]
314.7 K, m1 = 1.608 | 1097.8 | – | –
314.75 K, m1 = 2.134 | 1125.2 | – | –
314.85 K, m1 = 2.622 | 1148.5 | – | –
315 K, m1 = 5.165 | 1241.7 | – | –
315.2 K, m1 = 0.1671 | 1003.8 | – | –
315.25 K, m1 = 3.437 | 1186.9 | – | –
315.55 K, m1 = 3.819 | 1198.5 | – | –
315.65 K, m1 = 3.043 | 1166.4 | – | –
315.85 K, m1 = 1.866 | 1110.4 | – | –
316.05 K, m1 = 1.106 | 1068 | – | –
316.05 K, m1 = 6.187 | 1269 | – | –
316.25 K, m1 = 0.0414 | 994.01 | – | –
316.35 K, m1 = 6.545 | 1276.6 | – | –
316.7 K, m1 = 0.646 | 1037.6 | – | –
316.95 K, m1 = 0.0831 | 996.85 | – | –
317.05 K, m1 = 2.622 | 1147.3 | – | –
317.1 K, m1 = 0.4247 | 1021.9 | – | –
317.15 K, m1 = 1.608 | 1096.6 | – | –
317.3 K, m1 = 2.134 | 1124.1 | – | –
317.3 K, m1 = 5.732 | 1255.6 | – | –
317.7 K, m1 = 3.819 | 1197.2 | – | –
317.9 K, m1 = 6.187 | 1267.7 | – | –
318 K, m1 = 4.547 | 1220.8 | – | –
318.15 K, m1 = 0.0414 | – | 1539.3 | 0.6244
318.15 K, m1 = 0.0831 | – | 1546 | 0.6418
318.15 K, m1 = 0.1671 | – | 1552.2 | 0.6857
318.15 K, m1 = 0.4247 | – | 1587.9 | 0.8341
318.15 K, m1 = 0.646 | – | 1613.4 | 0.9967
318.15 K, m1 = 0.8751 | – | 1638.1 | 1.163
318.15 K, m1 = 1.106 | – | 1661.5 | 1.405
318.15 K, m1 = 1.354 | – | 1683.6 | 1.679
318.15 K, m1 = 1.608 | – | 1705.8 | 1.679
318.15 K, m1 = 1.866 | – | 1727.8 | 2.437
318.15 K, m1 = 2.134 | – | 1749.8 | 2.967
318.15 K, m1 = 2.411 | – | 1773.8 | 3.777
318.15 K, m1 = 2.622 | – | 1782.8 | 4.254
318.15 K, m1 = 3.043 | – | 1808.1 | 5.774
318.15 K, m1 = 3.437 | – | 1832 | 8.453
318.15 K, m1 = 3.819 | – | 1846.6 | –
318.15 K, m1 = 4.001 | – | – | 12.63
318.15 K, m1 = 4.547 | – | 1868.1 | –
318.15 K, m1 = 4.563 | – | – | 19.6
318.15 K, m1 = 4.929 | – | – | 24.03
318.15 K, m1 = 5.165 | – | 1882.7 | –
318.15 K, m1 = 5.41 | – | – | 41.38
318.15 K, m1 = 5.732 | – | 1888.5 | 53.77
318.15 K, m1 = 6.187 | – | – | 87.61
318.2 K, m1 = 1.866 | 1109.3 | – | –
318.25 K, m1 = 6.545 | 1275.3 | – | –
318.5 K, m1 = 0.0414 | 992.99 | – | –
318.6 K, m1 = 1.327 | 1079.4 | – | –
318.6 K, m1 = 2.411 | 1138.3 | – | –
318.85 K, m1 = 5.165 | 1239 | – | –
319.1 K, m1 = 1.354 | 1080.6 | – | –
319.15 K, m1 = 0.646 | 1036.5 | – | –
319.25 K, m1 = 2.622 | 1146.1 | – | –
319.35 K, m1 = 0.8751 | 1050.8 | – | –
319.4 K, m1 = 0.0831 | 995.82 | – | –
319.5 K, m1 = 1.608 | 1095.5 | – | –
319.5 K, m1 = 2.134 | 1122.8 | – | –
319.65 K, m1 = 3.437 | 1184.4 | – | –
319.95 K, m1 = 3.043 | 1164.1 | – | –
319.95 K, m1 = 4.547 | 1219.5 | – | –
319.95 K, m1 = 6.545 | 1273.9 | – | –
320 K, m1 = 0.1671 | 1001.7 | – | –
320.85 K, m1 = 0.0414 | 991.94 | – | –
320.85 K, m1 = 5.732 | 1253 | – | –
320.95 K, m1 = 1.106 | 1065.8 | – | –
321.4 K, m1 = 0.646 | 1035.4 | – | –
321.55 K, m1 = 6.187 | 1265.1 | – | –
321.7 K, m1 = 3.819 | 1194.7 | – | –
321.8 K, m1 = 6.545 | 1272.5 | – | –
322.15 K, m1 = 0.4247 | 1019.9 | – | –
322.15 K, m1 = 3.043 | 1162.9 | – | –
322.3 K, m1 = 0.1671 | 1000.8 | – | –
322.45 K, m1 = 5.165 | 1236.5 | – | –
322.85 K, m1 = 1.866 | 1107.1 | – | –
323.05 K, m1 = 1.106 | 1064.8 | – | –
323.05 K, m1 = 1.327 | 1077.2 | – | –
323.05 K, m1 = 2.411 | 1135.8 | – | –
323.15 K, m1 = 0.0414 | 990.94 | 1544.5 | 0.5741
323.15 K, m1 = 0.0831 | – | 1549.2 | 0.5893
323.15 K, m1 = 0.1671 | – | 1557.7 | 0.6282
323.15 K, m1 = 0.4247 | – | 1591.1 | 0.7596
323.15 K, m1 = 0.646 | – | 1615.2 | 0.9059
323.15 K, m1 = 0.8751 | – | 1637.7 | 1.052
323.15 K, m1 = 1.106 | – | 1662.2 | 1.271
323.15 K, m1 = 1.354 | – | 1683.9 | 1.503
323.15 K, m1 = 1.608 | – | 1703.7 | 1.503
323.15 K, m1 = 1.866 | – | 1725 | 2.166
323.15 K, m1 = 2.134 | – | 1746.5 | 2.61
323.15 K, m1 = 2.411 | – | 1767.3 | 3.295
323.15 K, m1 = 2.622 | – | 1778.6 | 3.695
323.15 K, m1 = 3.043 | – | 1800.3 | 4.961
323.15 K, m1 = 3.437 | – | 1825 | 7.136
323.15 K, m1 = 3.819 | – | 1837.4 | –
323.15 K, m1 = 4.001 | – | – | 10.52
323.15 K, m1 = 4.547 | – | 1857.2 | –
323.15 K, m1 = 4.563 | – | – | 15.97
323.15 K, m1 = 4.929 | – | – | 19.29
323.15 K, m1 = 5.165 | – | 1871 | –
323.15 K, m1 = 5.41 | – | – | 32.16
323.15 K, m1 = 5.732 | – | 1874.6 | 41.44
323.15 K, m1 = 6.187 | – | – | 65.72
323.45 K, m1 = 6.545 | 1271.3 | – | –
323.5 K, m1 = 2.622 | 1143.8 | – | –
323.65 K, m1 = 1.354 | 1078.3 | – | –
323.75 K, m1 = 0.646 | 1034.3 | – | –
323.75 K, m1 = 3.437 | 1181.9 | – | –
323.75 K, m1 = 4.547 | 1217.1 | – | –
323.95 K, m1 = 0.8751 | 1048.7 | – | –
323.95 K, m1 = 2.134 | 1120.5 | – | –
324.05 K, m1 = 1.608 | 1093.3 | – | –
324.1 K, m1 = 0.0831 | 993.76 | – | –
324.25 K, m1 = 0.4247 | 1018.8 | – | –
324.25 K, m1 = 5.165 | 1235.2 | – | –
324.55 K, m1 = 5.732 | 1250.4 | – | –
325.15 K, m1 = 6.187 | 1262.4 | – | –
325.25 K, m1 = 6.545 | 1269.9 | – | –
325.75 K, m1 = 3.819 | 1192.2 | – | –
328.55 K, m1 = 6.187 | 1259.8 | – | –
